Laboratory results as given in US8969419B2, “Animal feed compositions and feeding methods” (priority 2009, dated 2015).

Test system: ruminal microbiota
Experiment: Analysis of ruminal samples from cattle fed hop beta acids or Rumensin
Type: in vivo
Details: Rumensin 300 mg/day; for Lactate Concentration, % differ from Control / Isobutyrate Concentration, % differ from Control / Isovalerate Concentration, % differ from Control / Valerate Concentration, % differ from Control / Butyrate Concentration, % differ from Control / Propionate Concentration, % differ from Control / Acetate Concentration, % differ from Control / Total VFA Concentration, % differ from Control: rumen fluid; for Lactate Concentration, % differ from Control / Isobutyrate Concentration, % differ from Control / Isovalerate Concentration, % differ from Control / Valerate Concentration, % differ from Control / Butyrate Concentration, % differ from Control / Propionate Concentration, % differ from Control / Acetate Concentration, % differ from Control / Total VFA Concentration, % differ from Control / Ruminal Ammonia Concentration, % differ from Control / Ruminal Acetate:Propionate Ratio, % differ from Control: β-acids averaged over five levels; for Ruminal pH, % differ from Control: β-acids averaged over five levels (10-300 mg/day)
Procedure: Background: Cattle were fed concentrate-based diets and were administered beta acids of hops (0, 10, 80, 160, 240, or 300 mg/day) or Rumensin (300 mg/day) to determine effects of the additives on ruminal microbiota. Rumen samples were periodically taken and pH, acetate, propionate, butyrate isobutyrate, valerate isovalerate, and total volatile fatty acid (VFA) concentrations were measured. Materials and Methods: A 10% beta acids solution (standard aqueous alkaline solution of beta acids) was subjected to dilution. Dilutions of the 10% beta acids solution were prepared (with water and KOH additions) such that solutions were prepared that contained the proper amount of beta acids (per ml) to provide proper cattle dose in 30 ml total volume (e.g. a solution was prepared that had 10 mg/30 ml (pH of 10.5) and was used to treat the 10 mg/steer/day group; another solution was prepared that had 80 mg/30 ml (pH 10.5) and was used to treat the 80 mg/steer/day group). Each animal was treated with it appropriate 30 ml of solution, once per day. A subset of ruminal fluid samples representing each of the seven treatment groups (control, five levels of beta acids and Rumensin). The beta acid levels were 10, 80 and 160, 240 and 300 mg/animal daily. The rumen fluid sampling was performed at prescribed intervals following feeding. Rumen samples were analyzed using standard accepted methodologies, and concentrations of parameters of interest determined. Results: Described in Tables I through XI are the averaged results from the 24 hour feeding period (i.e. average of analysis results for each parameter, complied from samples taken and analyzed over the course of the 24 hour feeding period) for: the control animals, the animals receiving beta acids treatments (average value at all five levels), and Rumensin treated animals. The Tables provide the maximum, minimum and average values observed. The beta acids (β-acids) and Rumensin values are reported as a percentage of the control. Positive percentage values mean that the treatment (beta acids or Rumensin) exceeded the control by the specified amount (negative values less than control by specified amount.

SMILES: CCC1(C2OC(C3OC(O)(CO)C(C)CC3C)CC2C)CCC(C2(C)CCC3(CC(O)C(C)C(C(C)C(OC)C(C)C(=O)O)O3)O2)O1 (stereo not drawn) [Rumensin, 4-[2-[5-ethyl-5-[5-[6-hydroxy-6-(hydroxymethyl)-3,5-dimethyl-oxan-2-yl]-3-methyl-oxolan-2-yl]oxolan-2-yl]-9-hydroxy-2,8-dimethyl-1,6-dioxaspiro[4.5]dec-7-yl]-3-methoxy-2-methyl-pentanoic acid]
- Lactate Concentration, % differ from Control (Ave over 24 hrs of feeding, control 0.6 mM): 10.2%
- Isobutyrate Concentration, % differ from Control (Ave over 24 hrs of feeding, control 0.79 mM): 6.84%
- Isovalerate Concentration, % differ from Control (Ave over 24 hrs of feeding, control 1.25 mM): 33.4%
- Valerate Concentration, % differ from Control (Ave over 24 hrs of feeding, control 3.06 mM): 31.7%
- Butyrate Concentration, % differ from Control (Ave over 24 hrs of feeding, control 9.3 mM): 0.6%
- Propionate Concentration, % differ from Control (Ave over 24 hrs of feeding, control 29 mM): 27.9%
- Acetate Concentration, % differ from Control (Ave over 24 hrs of feeding, control 38 mM): 9%
- Total VFA Concentration, % differ from Control (Ave over 24 hrs of feeding, control 82 mM): 14.9%
- Ruminal Ammonia Concentration, % differ from Control (Ave over 24 hrs of feeding, control 3.4 mM): −54.1%
- Ruminal Acetate:Propionate Ratio, % differ from Control (Ave over 24 hrs of feeding, control A:P ratio 1.50): −20.4%
- Ruminal pH, % differ from Control (Ave value over 24 hrs of feeding, control pH 5.69): −4.45%
- Isobutyrate Concentration, % differ from Control (Max over 24 hrs of feeding, control 1.00 mM): 5.00%
- Isovalerate Concentration, % differ from Control (Max over 24 hrs of feeding, control 1.81 mM): 26.0%
- Lactate Concentration, % differ from Control (Max over 24 hrs of feeding, control 3.0 mM): 66.7%
- Valerate Concentration, % differ from Control (Max over 24 hrs of feeding, control 3.80 mM): 39.5%
- Butyrate Concentration, % differ from Control (Max over 24 hrs of feeding, control 12.6 mM): −8.7%
- Propionate Concentration, % differ from Control (Max over 24 hrs of feeding, control 40 mM): 12.5%
- Acetate Concentration, % differ from Control (Max over 24 hrs of feeding, control 49 mM): −2%
- Total VFA Concentration, % differ from Control (Max over 24 hrs of feeding, control 107 mM): 0.9%
- Ruminal Ammonia Concentration, % differ from Control (Max over 24 hrs of feeding, control 7.2 mM): −41.7%
- Ruminal Acetate:Propionate Ratio, % differ from Control (Max over 24 hrs of feeding, control A:P ratio 1.73): 4.0%
- Ruminal pH, % differ from Control (Max value over 24 hrs of feeding, control pH 6.60): −5.45%
- Lactate Concentration, % differ from Control (Min over 24 hrs of feeding, control 0.2 mM): 0.0%
- Isobutyrate Concentration, % differ from Control (Min over 24 hrs of feeding, control 0.57 mM): 17.54%
- Isovalerate Concentration, % differ from Control (Min over 24 hrs of feeding, control 0.88 mM): 50.0%
- Valerate Concentration, % differ from Control (Min over 24 hrs of feeding, control 1.9 mM): 36.8%
- Butyrate Concentration, % differ from Control (Min over 24 hrs of feeding, control 6.6 mM): −75.8%
- Propionate Concentration, % differ from Control (Min over 24 hrs of feeding, control 18 mM): 22.2%
- Acetate Concentration, % differ from Control (Min over 24 hrs of feeding, control 28 mM): 11%
- Total VFA Concentration, % differ from Control (Min over 24 hrs of feeding, control 57 mM): 14.0%
- Ruminal Ammonia Concentration, % differ from Control (Min over 24 hrs of feeding, control 0.7 mM): −54.3%
- Ruminal Acetate:Propionate Ratio, % differ from Control (Min over 24 hrs of feeding, control A:P ratio 1.30): −25.4%
- Ruminal pH, % differ from Control (Min value over 24 hrs of feeding, control pH 5.18): −2.70%
